Test results as given in ChEMBL document CHEMBL6114969, “Ultra-short lipopeptides containing d-amino acid exhibiting excellent stability and antibacterial activity against gram-positive bacteria” (Eur J Med Chem, 2025).
Converted amounts (≈) assume the structure as drawn. The source made the active and inactive calls. The calls are words filed in the database; no cut-off is given here.

Experiments:
Staphylococcus aureus [1] = experiment: Antibacterial activity against methicillin-resistant Staphylococcus aureus ATCC 33591 infected in Balb/c mouse model of acute systemic infection assessed as reduction in bacterial count in liver at 10 mg/kg, ip measured after 5 days; assay type: functional, organism-based; conditions: time 5.0 day
[2] = Retention time of compound by RP-HPLC analysis; assay type: physicochemical
Staphylococcus aureus [3] = experiment: Antibacterial activity against Staphylococcus aureus ATCC 25923 incubated for 18 to 24 hrs by broth microdilution method; assay type: functional; conditions: time 18-24 hrs
Staphylococcus aureus [4] = experiment: Antibacterial activity against Staphylococcus aureus ATCC 29213 incubated for 18 to 24 hrs by broth microdilution method; assay type: functional; conditions: time 18-24 hrs
Staphylococcus aureus [5] = experiment: Antibacterial activity against methicillin-resistant Staphylococcus aureus ATCC 33591 incubated for 18 to 24 hrs by broth microdilution method; assay type: functional; conditions: time 18-24 hrs
[6] = Hemolytic activity in mouse Red blood cells incubated for 1 hr by absorbance based analysis; assay type: toxicity, cell-based; conditions: erythrocyte
Staphylococcus aureus [7] = experiment: Antibacterial activity against methicillin-resistant Staphylococcus aureus ATCC 33591 incubated for 18 to 24 hrs in presence of 1 mg/ml of trypsin by broth microdilution method; assay type: functional; conditions: time 18-24 hrs
Staphylococcus aureus [8] = experiment: Antibacterial activity against methicillin-resistant Staphylococcus aureus ATCC 33591 incubated for 18 to 24 hrs in presence of 2 mg/ml of pepsin by broth microdilution method; assay type: functional; conditions: time 18-24 hrs
Staphylococcus aureus [9] = experiment: Antibacterial activity against methicillin-resistant Staphylococcus aureus ATCC 33591 assessed as fold change in MIC incubated for 18 to 24 hrs in presence of MgCl2 by broth microdilution method; assay type: functional; conditions: time 18-24 hrs
Staphylococcus aureus [10] = experiment: Synergistic bactericidal activity against persistent methicillin-resistant Staphylococcus aureus ATCC 33591 incubated for 18 to 24 hrs in presence of ciprofloxacin by time-kill assay; assay type: functional, organism-based; conditions: time 18-24 hrs
Staphylococcus aureus [11] = experiment: Synergistic bactericidal activity against persistent methicillin-resistant Staphylococcus aureus ATCC 33591 incubated for 18 to 24 hrs in presence of polymyxin B by time-kill assay; assay type: functional, organism-based; conditions: time 18-24 hrs
Staphylococcus aureus [12] = experiment: Elimination of biofilm generation of methicillin-resistant Staphylococcus aureus ATCC 33591 incubated for 24 hrs by MTT assay; assay type: functional, organism-based
Staphylococcus aureus [13] = experiment: Bactericidal activity against methicillin-resistant Staphylococcus aureus ATCC 33591 at 4 times MIC incubated for 24 hrs in presence of 8 ug/ml LTA by absorbance based assay; assay type: functional, organism-based
Staphylococcus aureus [14] = experiment: Induction of morphological changes in methicillin-resistant Staphylococcus aureus ATCC 33591 assessed as large area membrane melting at 4 times MIC incubated for 2 hrs by SEM analysis; assay type: functional, organism-based
Staphylococcus aureus [15] = experiment: Induction of morphological changes in methicillin-resistant Staphylococcus aureus ATCC 33591 assessed as characteristic membrane rupture at 4 times MIC incubated for 2 hrs by SEM analysis; assay type: functional, organism-based
Staphylococcus aureus [16] = experiment: Induction of cell membrane damage in methicillin-resistant Staphylococcus aureus ATCC 33591 assessed as nucleic acid leakage at 2 to 8 times MIC measured upto 360 mins by absorbance based assay; assay type: functional, organism-based
Staphylococcus aureus [17] = experiment: Destruction of cell membrane in methicillin-resistant Staphylococcus aureus ATCC 33591 at 2 to 8 times MIC by absorbance based assay; assay type: functional, organism-based; conditions: time <= 360.0 min
DNA = experiment: Binding affinity to genomic DNA in methicillin-resistant Staphylococcus aureus ATCC 33591 at 1 to 8 times MIC; assay type: nucleic-acid assay
[18] = Toxicity in Balb/c mouse assessed as survival rate at 40 mg/kg, ip measured after 7 days; assay type: organism-based; conditions: in vivo, time 7 day
[19] = Toxicity in Balb/c mouse assessed as spleen atrophy at 80 mg/kg, ip measured after 7 days; assay type: organism-based; conditions: in vivo, 168 h, time 7 day
[20] = Toxicity in Balb/c mouse assessed as kidney atrophy at 80 mg/kg, ip measured after 7 days; assay type: organism-based; conditions: in vivo, 168 h, time 7 day
[21] = Toxicity in Balb/c mouse assessed as kidney pigmentation at 80 mg/kg, ip measured after 7 days; assay type: organism-based; conditions: in vivo, 168 h, time 7 day
[22] = Toxicity in Balb/c mouse assessed as change in serum BUN level at 20 to 80 mg/kg, ip measured after 7 days; assay type: organism-based; conditions: in vivo, 168 h, dose 20-80 mg/kg, time 7 day
[23] = Toxicity in Balb/c mouse assessed as cell swelling in kidney at 80 mg/kg, ip measured after 7 days by H and E staining based analysis; assay type: organism-based; conditions: in vivo, 168 h, time 7 day
[24] = Toxicity in Balb/c mouse assessed as cell swelling in spleen at 80 mg/kg, ip measured after 7 days by H and E staining based analysis; assay type: organism-based; conditions: in vivo, 168 h, time 7 day
Staphylococcus aureus [25] = experiment: Antibacterial activity against methicillin-resistant Staphylococcus aureus ATCC 33591 infected in Balb/c mouse model of acute systemic infection assessed as reduction in bacterial count in lung at 10 mg/kg, ip measured after 5 days; assay type: functional, organism-based; conditions: time 5.0 day
Staphylococcus aureus [26] = experiment: Antibacterial activity against methicillin-resistant Staphylococcus aureus ATCC 33591 infected in Balb/c mouse model of acute systemic infection assessed as reduction in cell swelling in heart at 10 mg/kg, ip measured after 5 days by H and E staining based analysis; assay type: functional, organism-based; conditions: time 5.0 day
Staphylococcus aureus [27] = experiment: Antibacterial activity against methicillin-resistant Staphylococcus aureus ATCC 33591 infected in Balb/c mouse model of acute systemic infection assessed as reduction in inflammatory cell infiltration in heart at 10 mg/kg, ip measured after 5 days by H and E staining based analysis; assay type: functional, organism-based; conditions: time 5.0 day
Staphylococcus aureus [28] = experiment: Antibacterial activity against methicillin-resistant Staphylococcus aureus ATCC 33591 infected in Balb/c mouse model of acute systemic infection assessed as reduction in follicular structure loss in spleen at 10 mg/kg, ip measured after 5 days by H and E staining based analysis; assay type: functional, organism-based; conditions: time 5.0 day
Staphylococcus aureus [29] = experiment: Antibacterial activity against methicillin-resistant Staphylococcus aureus ATCC 33591 infected in Balb/c mouse model of acute systemic infection assessed as reduction in inflammatory cell infiltration in kidney at 10 mg/kg, ip measured after 5 days by H and E staining based analysis; assay type: functional, organism-based; conditions: time 5.0 day
Staphylococcus aureus [30] = experiment: Antibacterial activity against methicillin-resistant Staphylococcus aureus ATCC 33591 infected in Balb/c mouse model of acute systemic infection assessed as reduction in tubule contraction in kidney at 10 mg/kg, ip measured after 5 days by H and E staining based analysis; assay type: functional, organism-based; conditions: time 5.0 day
Mus musculus [31] = experiment: In vivo inhibition of inflammation in Balb/c mouse model of acute systemic infection infected with methicillin-resistant Staphylococcus aureus ATCC 33591 assessed as reduction in TNF-alpha activity at 10 mg/kg, ip measured after 5 days; assay type: functional, organism-based; conditions: time 5.0 day
Mus musculus [32] = experiment: In vivo inhibition of inflammation in Balb/c mouse model of acute systemic infection infected with methicillin-resistant Staphylococcus aureus ATCC 33591 assessed as reduction in IL-1beta activity at 10 mg/kg, ip measured after 5 days; assay type: functional, organism-based; conditions: time 5.0 day
Staphylococcus aureus [33] = experiment: Antibacterial activity against methicillin-resistant Staphylococcus aureus ATCC 33591 infected in Balb/c mouse model of pneumonia infection assessed as reduction in bleeding in lung at 10 mg/kg, ip administered thrice at 4, 8 and 12 hrs post-infection measured after 24 hrs post-infection by H and E staining based analysis; assay type: functional, organism-based; conditions: time 20.0 hrs
Staphylococcus aureus [34] = experiment: (§1) Antibacterial activity against methicillin-resistant Staphylococcus aureus ATCC 33591 infected in Balb/c mouse model of skin wound infection assessed as reduction in bacterial load in skin at 10 mg/kg, ip administered thrice at 1, 24 and 48 hrs post-infection measured after 72 hrs post-infection in presence of polymyxin B; assay type: functional, organism-based; conditions: time 71.0 hrs
Staphylococcus aureus [35] = experiment: as §1, with “IL-1beta activity” for “bacterial load”, “14 days by IHC analysis” for “72 hrs post-infection in presence of polymyxin B”; assay type: functional, organism-based; conditions: time 14.0 day

CCCCCCCCCCCC(=O)N[C@H](CCCNC(=N)N)C(=O)N[C@H](CCCNC(=N)N)C(=O)N[C@H](Cc1c[nH]c2ccccc12)C(=O)O
Activity (Staphylococcus aureus [1]): Active
Retention_time [2]: 17.826 min
MIC (Staphylococcus aureus [3]): 4 µM (≈ 2.8 µg/mL)
MIC (Staphylococcus aureus [4]): 4 µM (≈ 2.8 µg/mL)
MIC (Staphylococcus aureus [5]): 4 µM (≈ 2.8 µg/mL)
HC10 [6]: 64 µM
MIC (Staphylococcus aureus [7]): 4 µM
MIC (Staphylococcus aureus [8]): 8 µM
fold change (FC) (Staphylococcus aureus [9]): <3
Activity (Staphylococcus aureus [10]): Dose-dependent-effect
Activity (Staphylococcus aureus [11]): Dose-dependent-effect
Activity (Staphylococcus aureus [12]): Not active; Compound Activity Was Not Significant
Activity (Staphylococcus aureus [13]): inactive
Activity (Staphylococcus aureus [14]): Active
Activity (Staphylococcus aureus [15]): Active
Activity (Staphylococcus aureus [16]): Active
Activity (Staphylococcus aureus [17]): Time-dependent-effect
Activity (DNA): Not active; Compound Exhibited Weak Affinity
survival at 168 h [18]: 0%
Activity [19]: Toxic
Activity [20]: Toxic
Activity [21]: Toxic
Activity [22]: Non-toxic
Activity [23]: Toxic
Activity [24]: Toxic
Activity (Staphylococcus aureus [25]): Active
Activity (Staphylococcus aureus [26]): Active
Activity (Staphylococcus aureus [27]): Active
Activity (Staphylococcus aureus [28]): Active
Activity (Staphylococcus aureus [29]): Active
Activity (Staphylococcus aureus [30]): Active
inhibition (Mus musculus [31]): Active
inhibition (Mus musculus [32]): Active
Activity (Staphylococcus aureus [33]): Active
Activity (Staphylococcus aureus [34]): Active
Activity (Staphylococcus aureus [35]): Active
